Where a SMILES comes first, the peptide text is derived from it. Bridges are numbered along the chain shown (N, C = ends).
Columns and labels:
KV4.1/K283D mutant = assay: Whole-cell patch clamp, KV4.1/K283D in CHO-K1 cells; format: cell-based, mouse
Experimental: (§1) The cDNA of hKV1.1, hKV1.3, rKV1.4, hKV1.5, rKV2.1, hKV3.1–3.4, mKV4.1, rKV4.2, and rKV4.3 were subcloned in the eukaryotic expression vector pCDNA3.1 or pCMV-blank. Channel mutants were made by a site-directed mutation method. Briefly, a pair of oppositely directed primers with 15 bp overlap at their 5′ ends and the designed mutation site were used to amplify the parental channel plasmid, then the PCR mix was treated with DpnI to remove the template. 10 μL digestion mix was directly used to transform 100 μL DH5α chemical competent cells. The correct mutation made by this procedure was finally confirmed by DNA sequencing. CHO-K1 cells (ATCC® CCL-61™) were grown in DMEM-F12 mixed medium (1:1) supplemented with 10% FBS and maintained in standard conditions (saturated humidity, 37°C, 5% CO2). Channel plasmid was co-transfected with pEGFP-N1 (encodes the green fluoresence protein) into CHO-K1 cells using lipofectamine 2000 following the manufacturer’s instructions. 4–6 h after transfection, cells were seeded onto poly-lysine (PLL) coated coverslips, and 24–36 h later, transfected cells were ready for patch-clamp analysis. It should be note that KV4.2 and its mutants were also co-expressed with hKChIP1 to promote their functional expressions.
(§2) Whole-cell patch clamp recording was performed in an electrophysiology platform equipped with MultiClamp 700B amplifier and Axon Digidata 1550 AD/DA convertor (Axon Instruments, Irvine, CA, United States). Data were acquired using the pClamp software (Axon Instruments, Irvine, CA, United States). All experiments were performed at room temperature. The bath solution contains (in mM): 140 NaCl, 5 KCl, 1 MgCl2, 2 CaCl2, 10 glucose, and 10 HEPES (pH = 7.3). The pipette solution contains (in mM): 140 KCl, 2.5 MgCl2, 11 EGTA, and 10 HEPES (pH = 7.3). Series resistance was kept below 10 MΩ and compensated to 80%. The concentration–response curves were fitted by a Hill logistic equation to estimate the potency (IC50) of the toxin. The whole cell conductance (G) at each depolarizing voltage (V) was determined using the equation: G = I/(V−Vrev), where I and Vrev represents the current amplitude and the reversal potential, respectively. In the present study, Vrev for K^+ current is determined to be −85.61 mV using the Nernst equation. G-V curve was obtained by plotting the normalized G as a function of V and fitted by the Boltzmann equation: y = 1/{1 + exp [(Va−V)/K]}, in which Va, V, and K represents half-maximum activation voltage, test voltage and slope factor, respectively. The steady-state fast inactivation of KV4 channels was measured using a classical two-pulses protocol: cell was held at −120 mV, and a train of conditional voltages (−120–40 mV, in 10 mV increment, 1,000 ms) were applied to induce channel inactivation, followed by a +60 mV test pulse (300 ms) to assess the proportion of non-inactivated channels; the sweep interval was set to 10 s. Currents at the test pulse (I) were normalized to the maximum value (Imax) and plotted as a function of the conditional voltage (V), the curve was fitted by the Boltzmann equation: I/Imax = A + (1−A)/{1 + exp [(V−Vh)/K]}, where Vh is the half-maximum inactivation voltage, A represents the minimum channel availability, and K is the slope factor. Gating currents of KV4.1–4.3 channels were measured as previously reported ([Tilley et al., 2019]). Briefly, the ionic pore currents were abolished by replacing K^+ with NMDG^+ in the pipette solution, and 10 µM Cs^+ was present in the bath solution to occupy the selectivity filter of KV channels to prevent decay of the gating currents during recording.
(§3) Data were presented as MEAN ± SEM, n represents the number of separate experimental cells. Data were analyzed using the software Clampfit 10.5 (Axon Instruments, Irvine, CA, United States), Graphpad Prism 5.01 (GraphPad Software, La Jolla, CA, United States) and Excel 2010 (Microsoft Corporation, Redmond, WA, United States). […]

[1] = test system: KV4.2/280PK (T280P/D281K double mutant); assay: Whole-cell patch clamp, KV4.2/280PK (with hKChIP1) in CHO-K1 cells; format: cell-based, rat
Experimental: as §1, §2, §3

KV4.1/P282T mutant = assay: Whole-cell patch clamp, KV4.1/P282T in CHO-K1 cells; format: cell-based, mouse
Experimental: as §1, §2, §3

KV3.3 channel (hKV3.3) = assay: Whole-cell patch clamp selectivity, KV3.3; format: cell-based, human; settings: KV3.3, 10 µM, n = 5
Experimental: (§4) The cDNA of hKV1.1, hKV1.3, rKV1.4, hKV1.5, rKV2.1, hKV3.1–3.4, mKV4.1, rKV4.2, and rKV4.3 were subcloned in the eukaryotic expression vector pCDNA3.1 or pCMV-blank. Channel mutants were made by a site-directed mutation method. Briefly, a pair of oppositely directed primers with 15 bp overlap at their 5′ ends and the designed mutation site were used to amplify the parental channel plasmid, then the PCR mix was treated with DpnI to remove the template. 10 μL digestion mix was directly used to transform 100 μL DH5α chemical competent cells. The correct mutation made by this procedure was finally confirmed by DNA sequencing. […] 4–6 h after transfection, cells were seeded onto poly-lysine (PLL) coated coverslips, and 24–36 h later, transfected cells were ready for patch-clamp analysis. […]
(§5) Whole-cell patch clamp recording was performed in an electrophysiology platform equipped with MultiClamp 700B amplifier and Axon Digidata 1550 AD/DA convertor (Axon Instruments, Irvine, CA, United States). […] The whole cell conductance (G) at each depolarizing voltage (V) was determined using the equation: G = I/(V−Vrev), where I and Vrev represents the current amplitude and the reversal potential, respectively. In the present study, Vrev for K^+ current is determined to be −85.61 mV using the Nernst equation. […] Gating currents of KV4.1–4.3 channels were measured as previously reported ([Tilley et al., 2019]). […]

[2] = test system: KV4.2/T282P mutant (T280P in text); assay: Whole-cell patch clamp, KV4.2/T282P (text: KV4.2/T280P) (with hKChIP1) in CHO-K1 cells; format: cell-based, rat
Experimental: as §1
as §2, with “Currents at the test pulse (I) were normalized to the maximum value (Imax) and plotted as a function of the conditional voltage (V), the curve was fitted by the Boltzmann equation: I/Imax = A + (1−A)/{1 + exp [(V−Vh)/K]}, where Vh is the half-maximum inactivation voltage, A represents the minimum channel availability, and K is the slope factor.” left out, “Briefly, the ionic pore currents were abolished by replacing K^+ with NMDG^+ in the pipette solution, and 10 µM Cs^+ was present in the bath solution to occupy the selectivity filter of KV channels to prevent decay of the gating currents during recording.” left out
as §3

KV4.1/F280V mutant = assay: Whole-cell patch clamp, KV4.1/F280V in CHO-K1 cells; format: cell-based, mouse; settings: +30 mV, n = 5
Experimental: as §4, §5

KV4.1/279LF/AA mutant = assay: Whole-cell patch clamp, KV4.1/279LF/AA in CHO-K1 cells; format: cell-based, mouse; settings: KV4.1/279LF/AA at Va depolarizing voltage, n = 5–7
Experimental: as §4, §5

KV1.5 channel (hKV1.5) = assay: Whole-cell patch clamp selectivity, KV1.5; format: cell-based, human; settings: KV1.5, 10 µM, n = 5
Experimental: as §4, §5

KV2.1 channel (rKV2.1) = assay: Whole-cell patch clamp selectivity, KV2.1; format: cell-based, rat; settings: KV2.1, 10 µM, n = 5
Experimental: as §4, §5

[3] = test system: KV4.3 channel gating currents; assay: Gating current recording, KV4.3; format: cell-based, rat
Experimental: as §4, §5

[4] = 10 μM κ-LhTx-1, G-V, mean ± SEM, n = 5
[5] = 10 μM κ-LhTx-1, two-pulse protocol, mean ± SEM, n = 5
[6] = Va shift by 10 μM κ-LhTx-1 vs control, mean ± SEM
[7] = Vh shift by 10 μM κ-LhTx-1 vs control, mean ± SEM
[8] = 10 μM κ-LhTx-1, G-V, mean ± SEM, n = 6
[9] = 10 μM κ-LhTx-1, two-pulse protocol, mean ± SEM, n = 6
[10] = 10 μM κ-LhTx-1, KV4.2/T282P, G-V, mean ± SEM, n = 5
[11] = 10 μM κ-LhTx-1, KV4.2/T282P, two-pulse protocol, mean ± SEM, n = 5

Q: Which “∆Va and inhi%(min) vs wild-type KV4.1” value (KV4.1/K283D mutant; 10 μM) does the source give for `CC[C@H](C)[C@@H]1NC(=O)[C@H](CCC(N)=O)NC(=O)[C@@H]2CSSC[C@@H]3NC(=O)[C@H](CC(C)C)NC(=O)[C@H](CC(N)=O)NC(=O)[C@H](CCSC)NC(=O)[C@H](Cc4c[nH]c5ccccc45)NC(=O)[C@H](CO)NC(=O)[C@H](C)NC(=O)[C@@H](NC(=O)[C@H](CCC(=O)O)NC(=O)[C@H](CCC(N)=O)NC(=O)[C@H](C)NC(=O)[C@H](CC(=O)O)NC(=O)[C@@H](N)CCC(=O)O)CSSC[C@H](NC(=O)[C@H](CSSC[C@@H](C(=O)N[C@@H](CCCCN)C(=O)N[C@@H](Cc4ccc(O)cc4)C(=O)N[C@@H](CCCCN)C(=O)N[C@@H](CC(C)C)C(N)=O)NC(=O)[C@H](Cc4c[nH]c5ccccc45)NC1=O)NC(=O)[C@H](CCCCN)NC(=O)[C@H](CCCCN)NC(=O)[C@H](CCC(=O)O)NC(=O)CNC3=O)C(=O)N[C@@H](CCC(=O)O)C(=O)NCC(=O)N[C@@H](Cc1ccc(O)cc1)C(=O)N[C@@H](C(C)C)C(=O)N2` [κ-LhTx-1] (H-EDAQECASWMNLCGEKKCCEGYVCQIWCKYKL-NH2; disulfide 6-19, 13-24, 18-28 (inferred); N-terminus and C-terminus assumed) here?
A: unchanged ∆Va and inhi%(min)

Q: And the “Va (steady-state activation)” value (KV4.1/K283D mutant; [4])?
A: 91.34 ± 3.47 mV

Q: What about the “k, slope factor (steady-state activation)” value (KV4.1/K283D mutant; [4]) of the same compound?
A: 17.49 ± 1.57 mV

Q: And the “Vh (steady-state inactivation)” value (KV4.1/K283D mutant; [5])?
A: -36.39 ± 3.03 mV

Q: And the “k, slope factor (steady-state inactivation)” value (KV4.1/K283D mutant; [5])?
A: 19.23 ± 1.48 mV

Q: And the “potency vs wild-type KV4.1” value (KV4.1/K283D mutant; +30 mV, n = 5)?
A: only slightly reduced κ-LhTx-1 potency

Q: And the “∆Va (steady-state activation)” value (KV4.1/K283D mutant; [6])?
A: 103.10 ± 4.22 mV

Q: And the “∆Vh (steady-state inactivation)” value (KV4.1/K283D mutant; [7])?
A: 24.74 ± 3.63 mV

Q: And the “∆Va and inhi%(min) vs KV4.1” value ([1]; 10 μM)?
A: not significantly different from those in KV4.1

Q: And the “Va (steady-state activation)” value [1, 8]?
A: 82.17 ± 1.67 mV

Q: What about the “k, slope factor (steady-state activation)” value [1, 8] of the same compound?
A: 13.22 ± 1.15 mV

Q: What about the “Vh (steady-state inactivation)” value [1, 5] of the same compound?
A: -9.93 ± 2.94 mV

Q: What about the “k, slope factor (steady-state inactivation)” value [1, 5] of the same compound?
A: 11.46 ± 1.10 mV

Q: What about the “∆Va (steady-state activation)” value [1, 6] of the same compound?
A: 102.8 ± 3.22 mV

Q: And the “∆Vh (steady-state inactivation)” value [1, 7]?
A: 43.66 ± 3.77 mV

Q: And the “Va (steady-state activation)” value (KV4.1/P282T mutant; [8])?
A: 52.55 ± 1.38 mV

Q: And the “k, slope factor (steady-state activation)” value (KV4.1/P282T mutant; [8])?
A: 18.09 ± 0.43 mV

Q: What about the “Vh (steady-state inactivation)” value (KV4.1/P282T mutant; [9]) of the same compound?
A: -29.12 ± 1.84 mV

Q: And the “k, slope factor (steady-state inactivation)” value (KV4.1/P282T mutant; [9])?
A: 10.73 ± 0.41 mV

Q: What about the “∆Va and inhi%(min) vs wild-type KV4.1” value (KV4.1/P282T mutant; 10 μM, close to values of KV4.2/KV4.3) of the same compound?
A: significantly reduced compared with those for KV4.1

Q: And the “∆Va (steady-state activation)” value (KV4.1/P282T mutant; [6])?
A: 52.58 ± 1.86 mV

Q: And the “∆Vh (steady-state inactivation)” value (KV4.1/P282T mutant; [7])?
A: 26.75 ± 2.85 mV

Q: And the effect on currents (KV3.3 channel (hKV3.3))?
A: did not remarkably affect the currents

Q: And the “Va (steady-state activation)” value [2, 10]?
A: 16.93 ± 2.90 mV

Q: And the “k, slope factor (steady-state activation)” value [2, 10]?
A: 25.61 ± 0.68 mV

Q: What about the “Vh (steady-state inactivation)” value [2, 11] of the same compound?
A: -71.72 ± 3.71 mV

Q: And the “k, slope factor (steady-state inactivation)” value [2, 11]?
A: 5.86 ± 0.21 mV

Q: What about the toxin inhibition ([2]; KV4.2/T280P, 10 μM, all voltages, n = 5–6) of the same compound?
A: resistant to toxin inhibition at all voltages

Q: And the “potency vs wild-type KV4.1” value (KV4.1/F280V mutant)?
A: only slightly reduced κ-LhTx-1 potency

Q: And the “effect of mutation on toxin inhibition” value (KV4.1/279LF/AA mutant)?
A: profoundly weakened the effect

Q: And the effect on currents (KV1.5 channel (hKV1.5))?
A: did not remarkably affect the currents

Q: And the effect on currents (KV2.1 channel (rKV2.1))?
A: did not remarkably affect the currents

Q: And the “inhibition of gating charge (Q) movement, 500 nM vs 10 µM” value ([3]; KV4.3, holding −100 mV, 20 ms to +30 mV, n = 5–6)?
A: inhibited essentially the same proportion of gating charge movement

Q: And the gating current inhibition ([3]; KV4.3, n = 5–6)?
A: inhibited the gating currents
